Reference: the NIST ThermoML archive (doi:10.1016/j.fluid.2011.11.011)
± gives the expanded uncertainty stated by the source.

Assay: an = ratio of the nth substance listed
Conditions: 275 K, Pendant drop shape

Row | Compound | surface tension liquid-gas (a2 = 0) | surface tension liquid-gas (a1 = 500) | surface tension liquid-gas (a1 = 1000) | surface tension liquid-gas (a1 = 2000) | surface tension liquid-gas (a1 = 2500) | surface tension liquid-gas (a1 = 3000) | surface tension liquid-gas (a1 = 3500) | surface tension liquid-gas (a1 = 4000) | surface tension liquid-gas (a1 = 5000)
1 | O [water] + CCCCCCCCCCCCOS(=O)(=O)[O-].[Li+] | 72.7 ± 2.3 mN/m |  |  |  |  |  |  |  | 
2 | CCCCCCCCCCCCOS(=O)(=O)[O-].[Li+] [lithium dodecyl sulfate] + O |  | 56.6 ± 1.8 mN/m | 53.1 ± 1.7 mN/m | 41.2 ± 1.3 mN/m | 38.9 ± 1.2 mN/m | 37.3 ± 1.2 mN/m | 37 ± 1.2 mN/m | 36.7 ± 1.2 mN/m | 36.7 ± 1.2 mN/m
